Target: T1, RIG-I (Homo sapiens, UniProt O95786, K858A/K861A)
T1 construct: HEK293 cells overexpressing either the full length RIG-I; host or cells: HEK293; HCT116 also for the qRT-PCR validation
T1 sequence (O95786 1-925 K858A/K861A): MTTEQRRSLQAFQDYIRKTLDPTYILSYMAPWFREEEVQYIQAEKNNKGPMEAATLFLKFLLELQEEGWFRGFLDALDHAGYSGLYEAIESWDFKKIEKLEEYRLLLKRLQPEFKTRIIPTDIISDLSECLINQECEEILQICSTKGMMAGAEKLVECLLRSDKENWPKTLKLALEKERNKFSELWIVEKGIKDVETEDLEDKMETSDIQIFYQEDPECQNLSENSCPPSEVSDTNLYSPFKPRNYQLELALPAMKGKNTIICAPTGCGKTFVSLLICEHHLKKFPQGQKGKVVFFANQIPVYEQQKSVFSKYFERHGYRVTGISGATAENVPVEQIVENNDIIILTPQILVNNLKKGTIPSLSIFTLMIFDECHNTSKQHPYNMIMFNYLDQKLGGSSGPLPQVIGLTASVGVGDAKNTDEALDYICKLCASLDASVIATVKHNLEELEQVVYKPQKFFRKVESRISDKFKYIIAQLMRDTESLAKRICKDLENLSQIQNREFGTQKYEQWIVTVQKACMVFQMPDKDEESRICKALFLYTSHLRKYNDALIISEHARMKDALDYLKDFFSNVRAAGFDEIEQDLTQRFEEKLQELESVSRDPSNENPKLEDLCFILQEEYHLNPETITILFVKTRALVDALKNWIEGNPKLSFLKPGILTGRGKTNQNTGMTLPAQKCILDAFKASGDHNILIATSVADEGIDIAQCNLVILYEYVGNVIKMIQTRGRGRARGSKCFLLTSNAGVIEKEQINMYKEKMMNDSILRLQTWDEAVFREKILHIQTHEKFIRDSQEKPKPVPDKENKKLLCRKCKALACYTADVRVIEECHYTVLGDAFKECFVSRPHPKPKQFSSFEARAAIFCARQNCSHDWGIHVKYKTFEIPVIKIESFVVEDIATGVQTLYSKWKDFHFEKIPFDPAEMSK
Test: UV cross-linking with quantitative real-time PCR (CLIP-PCR) of RIG-I complexes
Type: binding
Method: Graphic representation indicating the distribution of non-coding and repetitive RNA molecules bound to RIG-I following exposure to IR as compared to total irradiated cellular RNA. Transcripts were mapped to reference genomes using RepeatMasker. See Methods for further details. […] Cells were UV crosslinked at 150 mJ/cm^2 48 hours post-IR treatment prior to cell lysis. […] FIG. 29H show IFN-b levels in culture supernatant from ICR RIG-I^+/+ and primary MEFs 24 hours post-stimulation with the same set of synthetic U1 oligonucleotides used in (FIG. 29G) The amount of U1 synthetic oligonucleotides used in all stimulation experiments was 1 μg. P values were determined using unpaired Student's t-test. Error bars are SEM. ***P<0.005.
Technically, identification of RNAs was performed as follows: HEK293 cells were transiently transfected with 3×FLAG-tagged full-size RIG-I in pEF-BOS vector (Addgene; Cambridge, Mass.). Twenty-four hours post-transfection, cells were either mock-irradiated or exposed to IR (6 Gy). Forty-eight hours post-IR, cells were lysed with a modified lysis buffer (50 mM Tris-Cl pH 7.5, 0.15 M NaCl, 0.1% NP-40, 1.0% Triton X-100, 1 mM EDTA pH8.0, 1 mM EGTA pH8.0, 10% Glycerol, 2.5 mM MgCl2, 1 mM DTT, 0.1 mM ATP, and 1× Halt Protease Inhibitor) and incubated on ice for 1 hour. Cell lysates were separated from cell debris by centrifugation at 12,000 rpm at 4° C. Protein concentration was measured by BCA kit. Anti-FLAG monoclonal antibody was added to the cell lysate at a 1:500 dilution, and incubated overnight at 4° C. Protein G sepharose beads were added to the lysates and incubated for at least 2 hours at 4° C. Beads containing the antibody-RIG-I complexes were washed five times in wash buffer (50 mM Tris-Cl pH 7.5, 0.15 M NaCl, 1 mM MgCl2, 0.05% NP-40, 1 mM DTT) and proteins were eluted from the beads using a soft elution buffer (0.5% SDS, 0.1% Tween-20, 50 mM Tris pH 8.0) for 10 minutes at room temperature with vortexing every 2-3 minutes. Proteinase K was added to the eluates and incubated at 50° C. for 45 minutes. Trizol reagent was then added to the solution, and RNA bound to RIG-I was purified following manufacturer's protocol. RNA quality was analyzed using an Agilent Bioanalyzer 2100 with Pico Series II cartridges. RNA yield was measured using the Qubit RNA Broad Range kit. For qRT-PCR validation experiments of RIG-I pulled down RNA, UV cross-linking (2 doses at 150 mJ/cm^2) was performed on HEK293 and HCT116 overexpressing RIG-I prior to cell lysis. The same protocol for pulldown and RNA purification experiments was performed as described above.

For U2: snRNA, SEQ ID NO:21, which “levels in RIG-I pulldown after IR” value (HEK293 overexpressing K858A-K861A RNA binding deficient mutant RIG-I) is on record?
Its value is “did not detect increased levels”.

B1: M5: rbRNA, RIG-I agonist, 81 nucleotides, SEQ ID NO:26 (nucleic acid)
chain: GACGAAGACCACAAAACCAGATAAAAAATTATTTTTTATCTGGTTTTGTGGTCTTCGTCTATAGTGAGTCGTATTAATTTC
modifications: listed as DNA, chemistry not given here
For B1, which “binding to K858A-K861A RNA binding deficient mutant RIG-I” value (CLIP-PCR) is on record?
The value was “did not bind”.

Reference: patent US20170268001A1, “RNAS WITH TUMOR RADIO/CHEMO-SENSITIZING AND IMMUNOMODULATORY PROPERTIES AND METHODS OF THEIR PREPARATION AND APPLICATION” (THE UNIVERSITY OF CHICAGO, priority 2016, published 2017)
